Results taken from patent US5750578A, “Use of betulin and analogs thereof to treat herpesvirus infection” (priority 1997, dated 1998).
Entries after “also recorded” stand apart in the source; their conditions may differ.

Legend:
[1] = test system: HSV-2; assay: Cell protection test, HSV-2 in HEp2 cells; type: cell-based, herpes simplex virus type 2 (MS, patent strain); details: duplicate wells, 72 hours
Procedure: (§1) Two different HSV-1 and HSV-2 strains were used: HSV-1 (KOS), HSV-2 (MS). Also, HSV-1 (patent strain) and HSV-2 (patent strain) were purchased from ATCC and propagated in HEp2 cell monolayers. Virus stocks were prepared by adsorbing 1 ml of virus suspension containing 1 ×10^5 virus particles for one hour in HEp2 cells at 37° C. in 5% carbon dioxide tension. This stock was incubated under similar conditions for 48 hours after adding 15 ml of MEM containing the usual supplements.
(§2) Infected cells were harvested and disrupted through three cycles of freezing and thawing. The contents in the flasks were pooled, and the supernatant virus particles were collected by centrifugation at 3000 rpm for 5 minutes. The virus suspension dispensed in 2.5 ml aliquot each and […] using both microtitration and plaque counting methods. HSV-1 and HSV-2 containing 5×10^4 PFU/ml and 5.25×10^4 PFU/ml respectively were stored at -80° C. until needed.
(§3) A plus 3 (+++) was given to the wells in which betulin solutions protected the cells without any cytopathic effect as compared to cell and betulin control.

[2] = test system: HSV-1; assay: Cell protection test, HSV-1 in HEp2 cells; type: cell-based, herpes simplex virus type 1 (KOS, patent strain); details: duplicate wells, 72 hours
Procedure: as §1, §2, §3

[3] = test system: HSV-1; assay: Cell protection test, HSV-1 in SK-N-MC cells; type: cell-based, herpes simplex virus type 1 (KOS, patent strain); details: duplicate wells, 72 hours
Procedure: as §1, §2, §3

[4] = test system: HSV-1; assay: Cell protection test, HSV-1 in Vero cells; type: cell-based, herpes simplex virus type 1 (KOS, patent strain); details: duplicate wells, 72 hours
Procedure: as §1, §2, §3

[5] = test system: SK-N-MC cells; assay: Cytotoxicity test and drug controls, SK-N-MC cells; type: cell-based, human; set-up: Betulin control (monolayer rating) / Acyclovir control (monolayer rating): key to the marks not given beside the values
[6] = test system: Vero cells; assay: Cytotoxicity test and drug controls, Vero cells; set-up: Betulin control (monolayer rating) / Acyclovir control (monolayer rating): key to the marks not given beside the values
Procedure: Human epithelial type 2 (HEp2), African green monkey kidney (Vero) and human neuroblastoma (SK-N-MC) cells were purchased from American Type Culture Collection (ATCC-Rockville, Md.). These cells were grown at 37° C. in the presence of 5% carbon dioxide tension in minimal essential medium (MEM-Eagle) containing 0.1 mM of nonessential amino acids, and Earl's BSS 90% supplemented with 5% Newborn Calf Serum (NCS) and 1% penicillin/streptomycine sulfate. For SK-N-MC cells, 1.0 mM sodium pyruvate, and 10% NCS was used. The stock cells were prepared and stored at -80° C. in 5% dimethyl sulfoxide (DMSO).
A betulin solution containing 0.5 mg of betulin/1000 ml of water was filtered using a […] pore size filter (Gelman) attached to a 35 ml volume syringe to remove bacteria and other larger organisms. This sterile sample was further diluted to 1:2, 1:4, and 1:8 using distilled, deionized sterile water.
The cytotoxic effect of betulin was observed by using a 24-well microtiter plate. Each well contained 1 ml of MEM with supplements containing 1200 HEp2, Vero or SK-N-MC cells. The plates were incubated for 48 hours at 37° C. in 5% carbon dioxide tension and followed by replacement of the medium with 1.0 ml of MEM with specific supplements.
A 1.0 ml of sterile betulin solution in duplicate at varying two-fold dilution were placed into labeled wells. No betulin solution was placed in the control wells containing a monolayer of cells. These microtiter plates were incubated at 37° C. and 5% carbon dioxide tension for 48 hours and rated as follows.
Similarly, a plus 2 (++) for 75% monolayer, a plus one (+) for 50% monolayer, and a plus minus (±) for 25% monolayer development. A minus rating means that most of the cells are abnormal, whereas a double minus (--) rating was given to wells containing all abnormal cells due to cytotoxic effect of betulin solution. Noncytotoxic dilutions and the highest dilution of betulin showing cytotoxicity, if any, were used in the protection tests. […]

[7] = test system: HSV-2; assay: Cell protection test, HSV-2 in Vero cells; type: cell-based, herpes simplex virus type 2 (MS, patent strain); details: acyclovir 25 mg; duplicate wells; 72 hours
Procedure: as §1, §2, §3

[8] = test system: HSV-2; assay: Cell protection test, HSV-2 in SK-N-MC cells; type: cell-based, herpes simplex virus type 2 (MS, patent strain); details: duplicate wells, 72 hours
Procedure: as §1, §2, §3

[9] = test system: HEp2 cells; assay: Cytotoxicity test and drug controls, HEp2 cells; type: cell-based, human; set-up: Betulin control (monolayer rating) / Acyclovir control (monolayer rating): key to the marks not given beside the values
[10] = test system: HSV-1 and HSV-2; assay: Cell protection tests, overall, HSV-1 and HSV-2 in three cell lines; type: cell-based
Procedure: as §1, §2, §3

[11] = acyclovir 50 mg/l and two-fold serial dilution
[12] = betulin 0.5 mg/l and two-fold dilutions, 48 hours

Structure (SMILES): Nc1nc2c(ncn2COCCO)c(=O)[nH]1 [Acyclovir, reference compound]
- Effectiveness against HSV-2 in HEp2 cells (acyclovir) ([1]; acyclovir 25 mg): ++±
- Effectiveness against HSV-1 in HEp2 cells (acyclovir) ([2]; acyclovir 25 mg [mg/l]): ++±
- Effectiveness against HSV-1 in SK-N-MC cells (acyclovir) ([3]; acyclovir 25 mg): ++±
- Effectiveness against HSV-1 in vero cells (acyclovir) ([4]; acyclovir 25 mg): ++±
- Acyclovir control (monolayer rating) [5]: +++
- Cytotoxic effect [5, 11]: no cytotoxic effect was observed
- Acyclovir control (monolayer rating) [6]: +++
- Effectiveness against HSV-2 in vero cells (acyclovir) [7]: ++±
- Effectiveness against HSV-2 in SK-N-MC cells (acyclovir) ([8]; acyclovir 25 mg): ++±
- Acyclovir control (monolayer rating) [9]: +++
- Cytotoxic effect [9, 11]: no cytotoxic effect was observed

Structure (SMILES): C=C(C)[C@@H]1CC[C@]2(CO)CC[C@]3(C)[C@H](CC[C@@H]4[C@@]5(C)CC[C@H](O)C(C)(C)[C@@H]5CC[C@]43C)[C@@H]12 [Betulin, lup-20(29)-ene-3β, 28-diol]
- Effectiveness of betulin against HSV-2 in HEp2 cells ([1]; betulin 0.25 mg): ++±
- Effectiveness of betulin against HSV-1 in HEp2 cells ([2]; betulin 0.5 mg [mg/l]): ++±
- Effectiveness of betulin against HSV-1 in SK-N-MC cells ([3]; betulin 0.5 mg): ++±
- Effectiveness in protecting indicator cell monolayers compared to acyclovir ([10]; 0.5 mg/l betulin vs 25 mg/l ACV, three cell types): as effective as 25 mg/l of ACV
- Spread of virus from the infected cells ([10]; after 72 hours): did not spread from the infected cells
- Effectiveness against HSV-2 compared to HSV-1 ([10]; three different cell lines): slightly more effective in protecting all three different cell lines against HSV-2 strains than HSV-1 strains; also recorded: more effective against HSV-2 compared to HSV-1
- Effectiveness of betulin against HSV-1 in vero cells ([4]; betulin 0.5 mg): ++±
- Cytotoxic effect [5, 12]: not toxic; also recorded: did not show any cytotoxic effect
- Betulin control (monolayer rating) ([5]; control wells, highest concentration of betulin, Tables 5 and 6): +++
- Cytotoxic effect [6, 12]: not toxic; also recorded: did not show any cytotoxic effect
- Betulin control (monolayer rating) ([6]; control wells, highest concentration of betulin, Tables 3 and 4): +++
- Effectiveness of betulin against HSV-2 in SK-N-MC cells ([8]; betulin 0.5 mg): ++±
- Cytotoxic effect [9, 12]: not toxic; also recorded: did not show any cytotoxic effect
- Betulin control (monolayer rating) ([9]; control wells, highest concentration of betulin, Tables 1 and 2): +++
